Laboratory results taken from ChEMBL document CHEMBL1681744, “1-((3S,4S)-4-amino-1-(4-substituted-1,3,5-triazin-2-yl) pyrrolidin-3-yl)-5,5-difluoropiperidin-2-one inhibitors of DPP-4 for the treatment of type 2 diabetes” (Bioorg Med Chem Lett, 2011).
Each block holds one compound with its values, some of them ahead of it. Active and inactive are the calls of the source. The calls are words filed in the database; no cut-off is given here.

How the values were obtained:
Liver microsomes = test: Intrinsic clearance in human liver microsomes; type: ADME, Microsome
Dipeptidyl peptidase 4 = Dipeptidyl peptidase 4 (Homo sapiens, UniProt P27487)
[1] = Apparent permeability from apical to basolateral side of MDCK cells by RRCK assay; type: ADME, cell-based, Canis lupus familiaris; details: dog
[2] = Fraction unbound in rat plasma; type: ADME, cell-free
[3] = Oral bioavailability in rat at 5 mg/kg; type: ADME, organism-based; details: in vivo
Dipeptidyl peptidase 8 = Dipeptidyl peptidase 8 (Homo sapiens, UniProt Q6V1X1)
Rattus norvegicus = test: Ex vivo inhibition of DPP4 in rat at 5 mg/kg, po after 16 hrs; type: functional, organism-based; parameters: dose 5 mg/kg
[4] = Half life in rat at 1 mg/kg, iv and 5 mg/kg, po; type: ADME, organism-based; details: in vivo
[5] = Clearance in rat plasma at 1 mg/kg, iv and 5 mg/kg, po; type: ADME, organism-based
[6] = Volume of distribution at steady state in rat at 1 mg/kg, iv; type: ADME, organism-based; parameters: dose 1 mg/kg, route intravenous; details: in vivo, read-out: Vdss
Dipeptidyl peptidase 2 = Dipeptidyl peptidase 2 (Homo sapiens, UniProt Q9UHL4); test: Inhibition of DPP2
[7] = Half life in dog; type: ADME, organism-based, Canis lupus familiaris; details: in vivo
[8] = Fraction unbound in human plasma; type: ADME, cell-free
Cytochrome P450 2C9 = Cytochrome P450 2C9 (Homo sapiens, UniProt P11712); test: Inhibition of CYP2C9; type: ADME
[9] = Oral bioavailability in dog; type: ADME, organism-based, Canis lupus familiaris; details: in vivo
[10] = Clearance in dog; type: ADME, organism-based, Canis lupus familiaris; details: in vivo
Cytochrome P450 1A2 = target: T1, Cytochrome P450 1A2 (Homo sapiens, UniProt P05177); test: Inhibition of CYP1A2; type: ADME
T1 sequence (P05177 whole entry): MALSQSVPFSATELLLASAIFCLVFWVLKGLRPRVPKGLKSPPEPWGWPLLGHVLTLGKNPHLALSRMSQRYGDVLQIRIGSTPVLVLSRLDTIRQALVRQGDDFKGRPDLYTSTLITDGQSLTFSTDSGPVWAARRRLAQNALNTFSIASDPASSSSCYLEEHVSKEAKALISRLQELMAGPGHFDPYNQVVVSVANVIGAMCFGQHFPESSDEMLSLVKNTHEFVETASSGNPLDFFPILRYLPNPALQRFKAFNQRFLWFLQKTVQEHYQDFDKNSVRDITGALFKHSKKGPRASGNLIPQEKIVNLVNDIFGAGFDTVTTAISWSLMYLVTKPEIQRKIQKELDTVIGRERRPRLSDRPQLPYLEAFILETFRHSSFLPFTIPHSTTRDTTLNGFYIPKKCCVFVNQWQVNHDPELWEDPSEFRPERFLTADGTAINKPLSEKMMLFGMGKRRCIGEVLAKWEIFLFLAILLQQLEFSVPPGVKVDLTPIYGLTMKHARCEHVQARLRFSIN

Cytochrome P450 3A4 = Cytochrome P450 3A4 (Homo sapiens, UniProt P08684); test: Inhibition of CYP3A4; type: ADME
[11] = Volume of distribution at steady state in dog; type: ADME, organism-based, Canis lupus familiaris; details: in vivo, read-out: Vdss
Cytochrome P450 2D6 = Cytochrome P450 2D6 (Homo sapiens, UniProt P10635); test: Inhibition of CYP2D6; type: ADME
Sequence of Cytochrome P450 2D6 (P10635 whole entry): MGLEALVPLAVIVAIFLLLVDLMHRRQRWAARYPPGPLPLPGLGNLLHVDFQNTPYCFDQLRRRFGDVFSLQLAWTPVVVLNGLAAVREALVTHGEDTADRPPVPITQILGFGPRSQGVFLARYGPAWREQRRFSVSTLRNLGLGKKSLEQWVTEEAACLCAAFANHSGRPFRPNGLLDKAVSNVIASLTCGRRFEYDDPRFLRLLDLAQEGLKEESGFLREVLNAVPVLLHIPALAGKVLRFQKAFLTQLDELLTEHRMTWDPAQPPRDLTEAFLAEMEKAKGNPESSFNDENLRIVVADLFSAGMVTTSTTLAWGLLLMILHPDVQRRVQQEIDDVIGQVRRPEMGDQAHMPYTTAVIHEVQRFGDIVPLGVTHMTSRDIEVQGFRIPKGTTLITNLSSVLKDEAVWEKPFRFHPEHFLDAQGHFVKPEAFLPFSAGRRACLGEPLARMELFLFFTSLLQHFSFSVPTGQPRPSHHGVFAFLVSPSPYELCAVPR

Sequence of Dipeptidyl peptidase 4 (P27487 whole entry): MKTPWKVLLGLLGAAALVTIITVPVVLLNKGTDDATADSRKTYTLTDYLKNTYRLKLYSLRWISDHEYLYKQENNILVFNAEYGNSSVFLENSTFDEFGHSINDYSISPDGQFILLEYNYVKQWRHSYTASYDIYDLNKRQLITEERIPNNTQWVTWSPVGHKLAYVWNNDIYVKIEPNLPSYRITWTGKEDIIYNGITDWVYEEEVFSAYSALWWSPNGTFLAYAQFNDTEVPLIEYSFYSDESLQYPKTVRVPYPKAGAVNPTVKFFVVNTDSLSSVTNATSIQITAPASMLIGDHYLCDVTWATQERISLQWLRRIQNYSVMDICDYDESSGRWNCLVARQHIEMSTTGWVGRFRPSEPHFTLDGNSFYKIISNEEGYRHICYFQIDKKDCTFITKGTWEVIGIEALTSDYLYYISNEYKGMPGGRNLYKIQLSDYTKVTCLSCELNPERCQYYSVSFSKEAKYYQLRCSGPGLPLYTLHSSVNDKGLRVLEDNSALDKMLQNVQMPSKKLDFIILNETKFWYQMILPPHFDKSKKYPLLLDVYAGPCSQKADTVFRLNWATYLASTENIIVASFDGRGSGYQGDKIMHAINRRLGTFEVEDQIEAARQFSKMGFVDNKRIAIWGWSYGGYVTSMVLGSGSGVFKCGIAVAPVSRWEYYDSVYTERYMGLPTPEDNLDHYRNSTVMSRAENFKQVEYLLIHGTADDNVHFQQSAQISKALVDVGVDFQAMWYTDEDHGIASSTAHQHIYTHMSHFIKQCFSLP
Sequence of Dipeptidyl peptidase 8 (Q6V1X1 whole entry): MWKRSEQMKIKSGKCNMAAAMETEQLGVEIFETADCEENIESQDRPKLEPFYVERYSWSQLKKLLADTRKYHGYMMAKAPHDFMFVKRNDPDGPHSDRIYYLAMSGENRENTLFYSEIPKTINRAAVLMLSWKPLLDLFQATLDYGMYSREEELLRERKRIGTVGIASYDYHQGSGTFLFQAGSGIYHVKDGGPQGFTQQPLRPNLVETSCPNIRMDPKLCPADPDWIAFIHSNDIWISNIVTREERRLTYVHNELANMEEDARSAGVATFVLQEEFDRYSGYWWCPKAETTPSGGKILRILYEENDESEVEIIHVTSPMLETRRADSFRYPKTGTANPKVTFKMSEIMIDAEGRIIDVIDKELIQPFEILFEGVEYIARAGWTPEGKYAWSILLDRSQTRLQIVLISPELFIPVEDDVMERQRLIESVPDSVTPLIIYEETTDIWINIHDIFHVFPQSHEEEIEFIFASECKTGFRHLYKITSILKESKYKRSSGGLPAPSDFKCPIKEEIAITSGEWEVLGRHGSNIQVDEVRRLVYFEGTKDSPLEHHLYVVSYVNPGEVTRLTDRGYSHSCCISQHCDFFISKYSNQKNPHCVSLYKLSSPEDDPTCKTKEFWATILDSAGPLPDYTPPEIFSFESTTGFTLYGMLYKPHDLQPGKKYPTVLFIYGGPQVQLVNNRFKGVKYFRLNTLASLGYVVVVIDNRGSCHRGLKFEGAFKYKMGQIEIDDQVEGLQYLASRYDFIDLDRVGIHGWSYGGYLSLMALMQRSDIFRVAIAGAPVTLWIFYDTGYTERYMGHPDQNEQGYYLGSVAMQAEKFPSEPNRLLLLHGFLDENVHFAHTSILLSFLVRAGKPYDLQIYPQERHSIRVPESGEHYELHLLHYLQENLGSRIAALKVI
Sequence of Cytochrome P450 2C9 (P11712 whole entry): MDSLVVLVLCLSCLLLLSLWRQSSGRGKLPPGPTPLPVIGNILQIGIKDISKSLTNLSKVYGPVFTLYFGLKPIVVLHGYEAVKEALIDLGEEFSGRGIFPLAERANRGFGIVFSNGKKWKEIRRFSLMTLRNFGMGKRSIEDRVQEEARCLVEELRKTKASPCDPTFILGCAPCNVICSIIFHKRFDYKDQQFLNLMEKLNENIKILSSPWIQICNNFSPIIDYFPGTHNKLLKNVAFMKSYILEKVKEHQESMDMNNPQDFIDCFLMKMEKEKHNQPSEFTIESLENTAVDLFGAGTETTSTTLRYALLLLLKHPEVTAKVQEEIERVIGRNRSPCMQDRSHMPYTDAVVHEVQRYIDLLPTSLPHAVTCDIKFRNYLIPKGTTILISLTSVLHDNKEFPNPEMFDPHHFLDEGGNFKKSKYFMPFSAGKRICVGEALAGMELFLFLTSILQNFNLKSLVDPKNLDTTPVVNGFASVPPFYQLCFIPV
Sequence of Cytochrome P450 3A4 (P08684 whole entry): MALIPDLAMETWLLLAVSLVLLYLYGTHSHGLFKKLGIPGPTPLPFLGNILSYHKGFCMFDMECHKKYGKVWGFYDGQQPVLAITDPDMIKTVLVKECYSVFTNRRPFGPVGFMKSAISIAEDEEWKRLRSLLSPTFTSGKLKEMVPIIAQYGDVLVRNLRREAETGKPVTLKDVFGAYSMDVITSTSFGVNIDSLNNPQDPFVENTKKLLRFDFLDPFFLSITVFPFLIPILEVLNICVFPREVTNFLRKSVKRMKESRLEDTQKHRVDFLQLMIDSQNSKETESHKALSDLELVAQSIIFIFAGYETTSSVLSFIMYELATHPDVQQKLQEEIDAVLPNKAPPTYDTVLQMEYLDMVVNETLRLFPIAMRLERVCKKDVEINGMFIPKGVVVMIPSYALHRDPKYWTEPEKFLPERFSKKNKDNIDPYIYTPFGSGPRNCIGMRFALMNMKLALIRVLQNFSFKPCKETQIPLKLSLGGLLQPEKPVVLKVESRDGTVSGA

Papp A→B [1]: 18 nm/s | IC50 (Dipeptidyl peptidase 4): 0.026 µM | fraction unbound [2]: 0.75 | bioavailability [3]: 21% | IC50 (Dipeptidyl peptidase 8): > 30 µM | half-life [4]: 0.78 h | clearance [5]: 3.61 L/h/kg | Vd [6]: 2.3 L/kg
SMILES: N[C@H]1CN(c2cc(N3CCC(F)(F)C3)ncn2)C[C@@H]1N1CCCCC1=O
inhibition (Rattus norvegicus): Active

Papp A→B [1]: 357 nm/s | IC50 (Dipeptidyl peptidase 2): > 30 µM
SMILES: N[C@H]1CN(c2ncnc(-c3ccccc3)n2)C[C@@H]1N1CCCCC1=O

Papp A→B [1]: 27 nm/s | IC50 (Dipeptidyl peptidase 2): > 30 µM
SMILES: COc1ccc(-c2cc(N3C[C@H](N)[C@@H](N4CCCCC4=O)C3)ncn2)cn1

Papp A→B [1]: 34 nm/s | fraction unbound [2]: 0.82 | bioavailability [3]: 50% | IC50 (Dipeptidyl peptidase 8): > 30 µM | half-life [4]: 2.4 h | clearance [5]: 5.04 L/h/kg | Vd [6]: 5.7 L/kg
SMILES: N[C@H]1CN(c2cc(N3CCC(F)(F)C3)ncn2)C[C@@H]1N1CC(F)(F)CCC1=O

IC50 (Dipeptidyl peptidase 4): 0.488 µM | clearance (Liver microsomes): < 7 µL/min/mg
SMILES: N[C@H]1CN(c2cc(-c3cc(F)c(F)cc3F)ncn2)C[C@@H]1N1CCCC1=O

clearance (Liver microsomes): < 7 µL/min/mg
SMILES: N[C@H]1CN(c2cc(N3CCc4nocc4C3)ncn2)C[C@@H]1N1CCCC1=O

The remaining lines, values behind:

SMILES: N[C@H]1CN(c2cc(NC3CC3)ncn2)C[C@@H]1N1CCCC1=O
clearance (Liver microsomes): < 7 µL/min/mg

SMILES: N[C@H]1CN(c2cc(N3CCc4nocc4C3)ncn2)C[C@@H]1N1CCCCC1=O
IC50 (Dipeptidyl peptidase 4): 0.012 µM | clearance (Liver microsomes): < 7.5 µL/min/mg

SMILES: N[C@H]1CN(c2cc(NC3CC3)ncn2)C[C@@H]1N1CCCCC1=O
clearance (Liver microsomes): < 7 µL/min/mg

SMILES: N[C@H]1CN(c2ncnc(N3CCC(F)(F)C3)n2)C[C@@H]1N1CCCCC1=O
Papp A→B [1]: 38 nm/s | fraction unbound [2]: 0.86 | bioavailability [3]: 52% | IC50 (Dipeptidyl peptidase 8): > 30 µM | inhibition (Rattus norvegicus): Active | half-life [4]: 5 h | clearance [5]: 2.21 L/h/kg | Vd [6]: 4.7 L/kg

SMILES: Cc1nc(N2C[C@H](N)[C@@H](N3CC(F)(F)CCC3=O)C2)cc(N2CCC(F)(F)C2)n1
Papp A→B [1]: 39 nm/s | IC50 (Dipeptidyl peptidase 4): 0.013 µM | IC50 (Dipeptidyl peptidase 8): > 30 µM

SMILES: N[C@H]1CN(c2cc(-c3cc(F)c(F)cc3F)ncn2)C[C@@H]1N1CCCCC1=O
IC50 (Dipeptidyl peptidase 4): 0.047 µM | clearance (Liver microsomes): < 7.2 µL/min/mg

SMILES: N[C@H]1CN(c2cc(NC3CC3)ncn2)C[C@@H]1c1ccccc1
IC50 (Dipeptidyl peptidase 4): 0.019 µM | clearance (Liver microsomes): 38 µL/min/mg

SMILES: N[C@H]1CN(c2cc(N3CCc4nocc4C3)ncn2)C[C@@H]1c1ccccc1
IC50 (Dipeptidyl peptidase 4): 0.0016 µM | clearance (Liver microsomes): 56 µL/min/mg

SMILES: N[C@H]1CN(c2cc(-c3cc(F)cc(F)c3F)ncn2)C[C@@H]1c1ccccc1
clearance (Liver microsomes): 85 µL/min/mg

SMILES: N[C@H]1CN(c2ncnc(N3CCC(F)(F)C3)n2)C[C@@H]1N1CC(F)(F)CCC1=O
half-life [7]: 5.9 h | fraction unbound [8]: 0.83 | Papp A→B [1]: 50 nm/s | IC50 (Cytochrome P450 2C9): > 15 µM | bioavailability [9]: 150% | bioavailability [3]: 90% | IC50 (Dipeptidyl peptidase 8): > 30 µM | clearance [10]: 0.432 L/h/kg | IC50 (Cytochrome P450 1A2): > 15 µM | IC50 (Cytochrome P450 3A4): > 15 µM | Vd [11]: 1.9 L/kg | half-life [4]: 3.6 h | IC50 (Cytochrome P450 2D6): > 15 µM | clearance [5]: 2.76 L/h/kg | Vd [6]: 8.4 L/kg
